Like-named read-outs stand apart in the source and are kept apart here.
How the values were obtained:
[1] = tested on: PGE2 release from normal human chondrocytes; assay: IL-1β-induced PGE2 release from normal human chondrocyte monolayers, 48 h, competitive EIA; format: cell-based
Procedure: Mechanical stress and inflammation are thought to sustain catabolic cycles of extracellular matrix deterioration during osteoarthritis. In particular, PGE2 correlates with increased protease production and discomfort or pain in osteoarthritis.
After 48-hours, PGE2 release was evaluated by competitive EIA, and relative potency was calculated versus dose responses of Dex alone.
After 48 hours, PGE2 release was evaluated by competitive enzyme immunoassay (EIA), and relative potency was calculated versus Dex alone.
Lac is commonly thought to be simply an end-product of anaerobic glycolysis; however, it may also have immunomodulatory effects and promote protein modifications that alter gene expression. The goal of this experiment was to determine how Lac supplementation affects early-phase, inflammatory, and late-stage redifferentiation in chondrocyte models. To establish how Lac may influence inflammation early in osteoarthritis, monolayers of normal human chondrocytes were exposed to Lac dose responses of up to 100 millimolar, concurrently with 0.5 nanograms per milliliter IL-1β for 48 hours. The release of PGE2 was then quantified using competitive EIA. To investigate how Lac affects transcriptional programs in dedifferentiated osteoarthritic chondrocytes, monolayer cultures and micromass pellets were treated for 14 days with 100 millimolar final concentrations of Lac, with and without 10 nanograms per milliliter transforming growth factor beta 3 (TGF-β3). Total RNA was then isolated, and relative expression of SOX9 or Col2a1 was calculated using qRT-PCR, normalized to GAPDH.

[2] = tested on: PGE2 release from normal human chondrocytes; assay: IL-1β-induced PGE2 release from normal human chondrocytes, 24 h, DA vs decanoate working solutions; format: cell-based; conditions: Homo sapiens, Chondrocyte, 25 micromolar, prepared in medium
Procedure: The activity of DA working solutions prepared in either saline or lactated ringer's (LR) isotonic solutions was assessed. […] In addition, concentrated decanoate working solutions in saline or LR were prepared and added to the cultures at a final concentration of 25 micromolar. PGE2 release was then compared to matching points on the DA or decanoate medium as well as saline and LR controls.

[3] = tested on: MCP1 in osteoarthritic human synoviocytes; assay: IL-1β-induced MCP1 in osteoarthritic-synoviocytes; format: cell-based; conditions: IL-1β 0.5 ng/mL; 0.5, 0.8 or 1 millimolar DA; 0.1-100 nanomolar Dex
[4] = tested on: PGE2 release from osteoarthritic human synoviocytes; assay: IL-1β-induced PGE2 and PGD2 release from osteoarthritic-synoviocytes; format: cell-based; conditions: for IC50: Homo sapiens, read-out: IC50 for PGE2 inhibition
[5] = tested on: IL-1β release from human THP1 macrophages; assay: Two-hit (LPS then ATP) inflammasome activation model, IL-1β release from THP1 macrophages; format: cell-based; conditions: for IC50: Homo sapiens
Excerpt: The proinflammatory cytokine, IL-1β, is released from cells upon activation of the inflammasome, a multi-protein proinflammatory complex. A two-hit model of inflammasome activation in THP1 macrophages was developed that entails an overnight stimulation with LPS followed by a second proinflammatory stimulus, extracellular ATP, which drives inflammasome assembly and subsequent IL-1β release from the cells into the media.

[6] = tested on: SOX9 expression in human osteoarthritic chondrocytes; assay: SOX9 relative expression in high and low passage osteoarthritic chondrocytes, 7, 14 or 28 days; format: cell-based; conditions: high passage, dedifferentiated osteoarthritic chondrocytes with TGF-β3, 14 days
Excerpt: Media was exchanged bi-weekly. […] SOX9 is a transcription factor vital to the development and maintenance of cartilage and is required for chondrogenesis. SOX9 promotes chondrocyte survival and transcriptionally activates cartilage-specific genes. SOX9 is repressed in hypertrophic chondrocytes (i.e. terminally differentiated osteoblast-like cells).

[7] = tested on: prostaglandin I2 (PGI2) in primary human synoviocytes; assay: PGI2 in IL-1β-stimulated primary human osteoarthritic synoviocytes, 24 h; format: cell-based; conditions: IL-1β 1 ng/ml
Procedure: FIG. 25 is a bar graph that depicts the concentration of prostaglandin I2 (PGI2) present in primary human synoviocytes from patients with osteoarthritis that were stimulated with 1 ng/ml final concentration of IL-1β for 24 hours in the presence of varying concentrations of DA and Dex in view of controls. PGI2 concentration response mirrored PGE2 concentrations after DA treatment. […] It is noted that prostaglandin H2 (PGH2) was also tested and was not detected in either cell culture media or from cell lysates. Without being bound by theory, it is believed that PGH2 is an intermediate and is (near) immediately converted into downstream prostaglandins and therefore levels of PGH2 are not detectable.

Cyclooxygenase-2 (COX-2) = Cyclooxygenase-2 (COX-2) (Homo sapiens, UniProt P35354); assay: COX-2 inhibitor screen; format: biochemical; conditions: any of the concentrations tested; Celecoxib positive control
Excerpt: Celecoxib (Celebrex) was used as a positive control for COX-2.

[8] = biological target: PLA2 isolated from bee venom (Apis mellifera, UniProt P00630); format: biochemical
[9] = tested on: PGE2 in primary human osteoarthritic synoviocytes; assay: Early, pretreatment and intracellular vs secreted PGE2 in IL-1β-stimulated human osteoarthritic synoviocytes; format: cell-based
Procedure: The concentrations in FIG. 31A were measured at hour three.
Cells were also treated with IL-IRA which inhibits IL-1β by binding the cell-surface […] and inhibiting its dimerization with the IL-1 receptor (IL-1R), effectively blocking IL-1β signaling.
FIG. 33 illustrates two bar graphs that depict the concentrations of PGE2 inside of the cell versus PGE2 that was secreted into the cell culture media. Specifically, the bar graph labeled “Intracellular” illustrates the concentrations of PGE2 inside of the cell and the bar graph labeled “Supernatent” illustrates the concentration of PGE2 that was secreted into the cell culture media. Synoviocytes were stimulated with IL-1β for 6 hours and then cell culture media harvested separately along with collecting cell lysates. […] To test this, the PGE2 concentrations inside of the cells and in the cell culture media were measured to compare them directly to each other.

[10] = tested on: arachidonic acid (AA) in primary human synoviocytes; assay: Early arachidonic acid in IL-1β-stimulated primary human osteoarthritic synoviocytes, 3 h; format: cell-based; conditions: IL-1β 1 ng/mL
Procedure: Early concentrations of arachidonic acid (AA) present in primary human synoviocytes from patients with osteoarthritis that were stimulated with 1 ng/mL final concentration interleukin 1-beta (β) for 3 hours in the presence of varying concentrations of Dex and DA in view of controls are depicted in FIG. 32. The concentrations of AA in FIG. 32 were normalized to total protein content from the cell lysates using bicinchoninic acid (BCA).

[11] = tested on: Col2a1 expression in dedifferentiated osteoarthritic chondrocytes; assay: Col2a1 relative expression in high passage osteoarthritic chondrocyte monolayer model with TGF-β; format: cell-based, human; conditions: TGF-β added to the model; 1 mM Try, 0.5 mM DA
Procedure: (§1) These compounds were tested in a high passage osteoarthritic chondrocyte monolayer model, alone or in combination with other agents, for both transcriptional regulation of standard markers and IL-1β-induced PGE2 production.

[12] = tested on: MMP13 expression in dedifferentiated osteoarthritic chondrocytes; assay: MMP13 regulation in high passage osteoarthritic chondrocyte monolayer model, 28 days; format: cell-based, human; conditions: 28 days of treatment; 1 mM Try, 0.5 mM DA
Procedure: as §1

[13] = cited from earlier work
[14] = tested on: MMP13 expression in human osteoarthritic chondrocytes; assay: MMP13 relative expression in human osteoarthritic chondrocytes treated with DA and/or Try; format: cell-based; conditions: 28-day monolayer culture; 0.5 mM DA, 1 mM Try
Procedure: (§2) Total mRNA was then isolated at the indicated times, and qRTPCR was performed with primers specific for MMP13, Col2a1, and the housekeeping gene GAPDH. Relative expression was then calculated versus controls, with normalization to GAPDH.

[15] = tested on: Col2a1 expression in human osteoarthritic chondrocytes; assay: Col2a1 relative expression in human osteoarthritic chondrocytes treated with DA and/or Try with TGF-β3; format: cell-based; conditions: 14-day monolayer culture with TGF-β3; 0.5 mM DA, 1 mM Try
Procedure: as §2

Sequence of PLA2 isolated from bee venom (P00630 34-167 limits assumed): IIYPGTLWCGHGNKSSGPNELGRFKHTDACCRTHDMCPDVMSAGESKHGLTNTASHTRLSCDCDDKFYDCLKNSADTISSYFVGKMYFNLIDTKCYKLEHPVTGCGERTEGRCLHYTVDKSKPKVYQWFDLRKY
Sequence of Cyclooxygenase-2 (COX-2) (P35354 18-604, species assumed): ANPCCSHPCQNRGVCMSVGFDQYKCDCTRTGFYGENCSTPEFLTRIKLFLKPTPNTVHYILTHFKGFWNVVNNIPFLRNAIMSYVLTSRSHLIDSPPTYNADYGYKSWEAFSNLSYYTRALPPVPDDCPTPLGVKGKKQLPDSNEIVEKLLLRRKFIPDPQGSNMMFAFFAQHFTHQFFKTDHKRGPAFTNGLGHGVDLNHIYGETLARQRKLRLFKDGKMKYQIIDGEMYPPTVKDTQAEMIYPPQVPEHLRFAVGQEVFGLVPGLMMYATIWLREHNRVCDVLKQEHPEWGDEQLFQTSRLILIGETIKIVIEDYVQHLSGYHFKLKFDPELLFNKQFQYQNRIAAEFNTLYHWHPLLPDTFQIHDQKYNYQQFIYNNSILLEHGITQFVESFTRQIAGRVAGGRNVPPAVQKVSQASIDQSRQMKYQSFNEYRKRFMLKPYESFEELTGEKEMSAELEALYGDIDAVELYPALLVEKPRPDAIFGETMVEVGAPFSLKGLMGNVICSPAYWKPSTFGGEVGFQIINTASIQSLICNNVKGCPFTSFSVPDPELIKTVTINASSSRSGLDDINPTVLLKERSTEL

Q: For `CCCCCCCCCC(=O)O` [DA, decanoic acid], which inhibition at 500 µM ([1]; Homo sapiens, Chondrocyte, DA 500 micromolar final, IL-1β 500 pg/mL, 48 h) is on record?
A: 100%

Q: What about the “final concentration at which significant inhibition of PGE2 release was observed” value ([1]; p-value≤0.05 versus medium controls) of the same molecule?
A: 6 µM

Q: What about the inhibition at 25 µM [2] of the same molecule?
A: 62.4%

Q: What about the “effect on MCP1” value [3] of the same molecule?
A: reduction in MCP1 in a dose dependent manner

Q: And the “increase of DA potency by 100 picomolar Dex” value [4]?
A: 2.2 ×

Q: What about the IC50 ([4]; DA alone, IL-1β 0.5 ng/mL) of the same molecule?
A: 19.4 µM

Q: What about the IC50 ([4]; DA in the presence of 100 picomolar Dex) of the same molecule?
A: 8.62 µM

Q: What about the “DA concentration above which PGE2 and PGD2 release was inhibited” value ([4]; IL-1β 0.5 ng/mL) of the same molecule?
A: above 1 micromolar

Q: What about the “increased DA potency by 25 nanomolar Dex” value [5] of the same molecule?
A: 1.917 ×

Q: What about the IC50 ([5]; THP-1, DA alone, 0.02 to 1.8 millimolar, three independent experiments) of the same molecule?
A: 125 µM

Q: And the IC50 ([5]; THP-1, DA with addition of 25 nanomolar Dex)?
A: 65 µM

Q: And the IC50 ([5]; THP-1, repeated experiments comparing DA to sodium decanoate)?
A: 172 µM

Q: And the SOX9 expression [6]?
A: increased SOX9 transcription

Q: And the “secreted PGI2 levels” value [7]?
A: decreases secreted PGI2 levels

Q: And the “inhibition of COX-2 activity” value (Cyclooxygenase-2 (COX-2))?
A: no observed inhibition

Q: And the PLA2 activity inhibition [8]?
A: no significant signs of PLA2 activity inhibition

Q: What about the “PGE2 release after pretreatment (5 minutes, 1 hour, or 2 hours) then IL-1β 10 minutes or 1 hour” value ([9]; 200 nanomolar DA or 500 nanograms/milliliter IL-1RA, IL-1β 1 nanogram/milliliter) of the same molecule?
A: blocked the low-level activation

Q: What about the “intracellular versus secreted PGE2” value ([9]; IL-1β 1 ng/ml, 6 hours) of the same molecule?
A: causes PGE2 to build up intracellularly instead of getting secreted

Q: And the PGE2 concentration ([9]; measured at hour three, IL-1β 1 ng/mL)?
A: less than 5000 pg/ml

Q: And the “AA concentration normalized to total protein” value [10]?
A: lower than that of the control with IL-1β

Q: What about the Col2a1 regulation [11] of the same molecule?
A: 26 fold

Q: And the MMP13 regulation [12]?
A: 1.12 fold

Q: And the “pKa (negative log of acid dissociation constant)” value [13]?
A: about 4.9

Q: For `N[C@@H](Cc1c[nH]c2ccccc12)C(=O)O` [Try, tryptophan], which Col2a1 regulation [11] is on record?
A: −1.36 fold

Q: And the MMP13 regulation [12]?
A: −3.32 fold

Q: What about the “Observed Relative expression of MMP13” value [14] of the same molecule?
A: −2.6 fold

Q: And the “Observed Relative expression of Col2a1” value [15]?
A: −1.4 fold
